The record followed here is ChEMBL document CHEMBL1137870, “Synthesis and evaluation of 2-amino-8-alkoxy quinolines as MCHr1 antagonists. Part 2” (Bioorg Med Chem Lett, 2004).

SMILES strings stand for the structures.

Series [1] deals with T1, Melanin-concentrating hormone receptor 1 (Homo sapiens, UniProt Q99705). The series can be described thus: Concentration required to inhibit 50% of melanin-concentrating hormone induced [Ca2+] flux in IMR-32 cells measured by using a fluorometric imaging plate reader. The series is classed as functional, cell-based.
Series [2] deals with T1, Melanin-concentrating hormone receptor 1. Kind of series: Concentration required to inhibit binding of [125I]-MCH radioligand to human Melanin-concentrating hormone receptor 1 in IMR-32 I3.4.2 cell membranes.
Series [3] is described as follows: Half life in plasma was determined at the peroral dose of 10 mg/kg in diet-induced obese (DIO) mice. As to conditions: mouse, po. The series is classed as ADME, organism-based. More on the design: dose 10 mg/kg, route oral.
Series [4] in a line: Area under curve in plasma was determined at the peroral dose of 10 mg/kg in diet-induced obese (DIO) mice. The series is classed as ADME, organism-based. The arrangement: dose 10 mg/kg, route oral. The following applies: mouse, in vivo, po.
Series [5] in a line: Half life in brain was determined at the peroral dose of 10 mg/kg in diet-induced obese (DIO) mice. The series is classed as ADME, organism-based. More on the design: dose 10 mg/kg, route oral. As to conditions: mouse, po.
The nature of series [6]: Brain/plasma ratio was determined at peroral dose of 10 mg/kg in diet-induced obese (DIO) mice. Format: ADME, organism-based. More on the design: dose 10 mg/kg, route oral. As to conditions: mouse, brain and plasma, po.
Series [7] can be described thus: Area under curve in brain was determined at the peroral dose of 10 mg/kg in diet-induced obese (DIO) mice. As to conditions: mouse, in vivo, po. Format: ADME, organism-based. More on the design: dose 10 mg/kg, route oral.

T1 sequence (Q99705 whole entry): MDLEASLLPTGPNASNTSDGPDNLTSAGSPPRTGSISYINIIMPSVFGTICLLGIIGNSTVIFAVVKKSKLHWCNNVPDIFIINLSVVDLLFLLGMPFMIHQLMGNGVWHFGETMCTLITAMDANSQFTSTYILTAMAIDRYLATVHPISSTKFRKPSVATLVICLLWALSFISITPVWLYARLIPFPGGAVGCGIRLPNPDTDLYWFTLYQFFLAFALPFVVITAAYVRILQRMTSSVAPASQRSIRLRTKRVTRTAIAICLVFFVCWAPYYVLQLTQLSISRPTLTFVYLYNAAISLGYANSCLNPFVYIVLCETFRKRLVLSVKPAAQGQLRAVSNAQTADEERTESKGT

`O=C(NCCCOc1cccc2ccc(NCc3ccc(-c4ccccc4Cl)o3)nc12)Nc1ccc2c(c1)OCO2`: the IC50 in series [1] was found to be 3110 nM; in series [2] it was 50 nM.
On to `Nc1ccc2cccc(OCCNCc3ccoc3)c2n1`, for which the values for the IC50 in series [1] and in series [2] were above 10000 nM and 660 nM, respectively.
The like results for `CC(CNCc1ccccc1)Oc1cccc2ccc(N)nc12` (stereo not given) were, in that order, 340 nM and 100 nM.
The like results for `Nc1ccc2cccc(OCCCNC(=O)c3cccc(Cl)c3)c2n1` were, in that order, 3 nM and 0.4 nM.
Take `N#Cc1cccc(C(=O)NCCCOc2cccc3ccc(N)nc23)c1`: the IC50 was 7 nM in series [1] and 3 nM in series [2]. Besides, the half-life is 1.4 h in series [3] and 1.6 h in series [5]. In addition, the AUC in series [4] worked out at 328 ng·h/mL; in series [7] it was 11 ng·h/mL. For the same compound, the Kp in series [6] is 0.03.
Turning to `CC(CNCC1CCCC1)Oc1cccc2ccc(N)nc12` (stereo not given), the IC50 in series [1] and in series [2] was 100 nM throughout.
Consider `CC(CNCc1ccoc1)Oc1cccc2ccc(N)nc12` (stereo not given), for which the IC50 turned out to be 100 nM in series [1] and 10 nM in series [2].
For the compound `O=C(NCCCOc1cccc2ccc(NCc3ccc(-c4ccccc4Cl)o3)nc12)c1cccc(Cl)c1`, the IC50 in series [1] turned out to be 20 nM; in series [2], 1 nM.
On to `COc1cccc(C(=O)NCCCOc2cccc3ccc(N)nc23)c1`, for which the half-maximal inhibitory concentration (IC50) in series [1] worked out at 30 nM; in series [2] it was 2 nM.
Regarding `CC(C)c1ccc(C(=O)NCCCOc2cccc3ccc(N)nc23)cc1`, the IC50 is 140 nM in series [1] and 60 nM in series [2].
Consider `Nc1ccc2cccc(OCCCNc3ccc4c(c3)OCO4)c2n1`, for which the IC50 amounted to 270 nM in series [1] and 10 nM in series [2].
Take `CC(CNC1CCCC1)Oc1cccc2ccc(N)nc12` (stereo not given): the IC50 in series [1] and in series [2] was 30 nM throughout.
Turning to `CC(CC(C)(C)C)Oc1cccc2ccc(N)nc12` (stereo not given), the IC50 in series [2] is 50 nM.
As for `CC(CN1CCOCC1)Oc1cccc2ccc(N)nc12` (stereo not given), the results for the IC50 in series [1] and in series [2] were 190 nM and 80 nM, respectively.
The like results for `CC(CNCc1ccc2c(c1)OCO2)Oc1cccc2ccc(N)nc12` (stereo not given) were, in that order, 130 nM and 30 nM.
Consider `CC(CNCc1ccsc1)Oc1cccc2ccc(N)nc12` (stereo not given), for which the IC50 in series [1] was found to be 150 nM; in series [2] it was 10 nM.
The like results for `CC(C)c1ccc(CNCCCOc2cccc3ccc(N)nc23)cc1` were, in that order, 630 nM and 10 nM.
For `COCC1=C(C(=O)OC)[C@H](c2ccc(F)c(F)c2)N(C(=O)NCCCN2CCC(c3cccc(NC(C)=O)c3)CC2)C(=O)N1` [SNAP-7941], the IC50 in series [1] amounted to 15 nM; in series [2] it was 3 nM.
The like results for `Nc1ccc2cccc(OCCCNC(=O)Nc3cccc(Cl)c3)c2n1` were, in that order, 8 nM and 0.9 nM.
For `Nc1ccc2cccc(OCCCNC(=O)Nc3ccc4c(c3)OCO4)c2n1`, the IC50 in series [1] worked out at 110 nM; in series [2], 5 nM.
As for `CN(C)CC1CCc2cc(NC(=O)c3ccc(-c4ccc(F)cc4)cc3)ccc2C1` (single isomer, unassigned; (-)), the IC50 in series [1] stood at 872 nM; in series [2] it was 85 nM.
As to `CC(CNc1ccc2[nH]ncc2c1)Oc1cccc2ccc(N)nc12` (stereo not given), the values for the IC50 in series [1] and in series [2] were 8180 nM and 530 nM, respectively.
Taken in the same sequence, the figures for `N#Cc1cccc(C(=O)NCCCOc2cccc3ccc(NCc4ccc(-c5ccc(Cl)cc5)o4)nc23)c1` were 40 nM and 2 nM.
Take `N#Cc1cccc(C(=O)NCCCOc2cccc3ccc(NCc4ccc(-c5cccc(Cl)c5)o4)nc23)c1`: the values for the IC50 in series [1] and in series [2] were 10 nM and 5 nM, respectively.
The like results for `Nc1ccc2cccc(OCCCNC(=O)c3ccc4c(c3)OCO4)c2n1` were, in that order, 70 nM and 7 nM.
Consider `Nc1ccc2cccc(OCCCNC(=O)c3cccc(OC(F)(F)F)c3)c2n1`, for which the IC50 in series [1] came to 20 nM; in series [2] it was 6 nM. For the same compound, the results for the half-life in series [3] and in series [5] were 1.2 h and 0.6 h, respectively. For the same compound, the results for the AUC in series [4] and in series [7] were 424 ng·h/mL and 68 ng·h/mL, respectively. In addition, the Kp in series [6] was 0.2.
With `CC(CNCC1CC1)Oc1cccc2ccc(N)nc12` (stereo not given), the IC50 came to 460 nM in series [1] and 80 nM in series [2].
Taken in the same sequence, the figures for `CC(CN1CCCCC1)Oc1cccc2ccc(N)nc12` (stereo not given) were 290 nM and 40 nM.
The like results for `Nc1ccc2cccc(OCCNCc3ccc4c(c3)OCO4)c2n1` were, in that order, 8960 nM and 520 nM.
Taken in the same sequence, the figures for `CC(CNC1CC1)Oc1cccc2ccc(N)nc12` (stereo not given) were 580 nM and 50 nM.
As for `Nc1ccc2cccc(OCCCNCc3ccc(Cl)c(C(F)(F)F)c3)c2n1`, the results for the IC50 in series [1] and in series [2] were 220 nM and 5 nM, respectively. In addition, in series [3], the half-life was 8.9 h. The AUC in series [4] came to 9960 ng·h/mL; in series [7], 9520 ng·h/mL. The Kp in series [6] stood at 0.96.
With `CCCNc1ccc2cccc(OCCCNC(=O)c3cccc(Cl)c3)c2n1`, the IC50 in series [1] stood at 1120 nM; in series [2] it was 10 nM.
The like results for `Nc1ccc2cccc(OCCCNc3ccc4c(c3)OC(F)(F)O4)c2n1` were, in that order, 100 nM and 1 nM.
Consider `CC(CN1CCCC1)Oc1cccc2ccc(N)nc12` (stereo not given), for which the IC50 in series [1] stood at 360 nM; in series [2], 70 nM.
Regarding `CC(CNC1CCCCC1)Oc1cccc2ccc(N)nc12` (stereo not given), the IC50 came out at 2170 nM in series [1] and 210 nM in series [2].
Taken in the same sequence, the figures for `COc1cccc(CNCC(C)Oc2cccc3ccc(N)nc23)c1` (stereo not given) were 600 nM and 1 nM.
